Where “and” joins values, the source holds several entries; their conditions need not be identical. Equal entries are not always repeated.
Experiments:
[1] = tested on: mouse model of ischemic stroke (tMCAO); test: Neurological deficit score after tMCAO; assay type: in vivo; details: for Neurological score (score): Fig 7c, individual mice #1-#7; for neurological deficit score: ZT-1a 5.0 mg/kg
[2] = tested on: mouse primary cortical neurons; test: Cell volume measurement (calcein-AM) under hyperosmotic stress, primary cortical neurons

## Cc1cc(C(C#N)c2ccc(Cl)cc2)c(Cl)cc1NC(=O)c1cc(Cl)ccc1O (stereo not drawn) [ZT-1a, 5-chloro-N-(5-chloro-4-((4-chlorophenyl)(cyano)methyl)-2-methylphenyl)-2-hydroxybenzamide]
[1]; Day 0
  Neurological score (score): 3 score
[1]; Day 1
  Neurological score (score): 3 score and 2 score (5×) and 1 score
[1]; Day 3
  Neurological score (score): 2 score (6×) and 1 score
[1]; Day 5
  Neurological score (score): 1 score (3×) and 2 score (4×)
[1]; Day 7
  Neurological score (score): 1 score (4×) and 2 score (3×)
[1]; day 1 post tMCAO
  neurological deficit score: 2.0 ± 0.2
[1]; day 7 post tMCAO
  neurological deficit score: 1.4 ± 0.2
[2]; Fig 5b trace, Time 1.00403
  Cell water (relative change): 1.0915 relative change
[2]; Fig 5b trace, Time 2.00427
  Cell water (relative change): 1.001 relative change
[2]; Fig 5b trace, Time 3.00425
  Cell water (relative change): 0.9646 relative change
[2]; Fig 5b trace, Time 4.00423
  Cell water (relative change): 0.9689 relative change
[2]; Fig 5b trace, Time 5.0042
  Cell water (relative change): 0.9837 relative change
[2]; Fig 5b trace, Time 6.00445
  Cell water (relative change): 0.7025 relative change
[2]; Fig 5b trace, Time 7.00442
  Cell water (relative change): 0.636 relative change
[2]; Fig 5b trace, Time 8.00435
  Cell water (relative change): 0.6336 relative change
[2]; Fig 5b trace, Time 9.00452
  Cell water (relative change): 0.5971 relative change
[2]; Fig 5b trace, Time 10.0046
  Cell water (relative change): 0.5748 relative change
[2]; Fig 5b trace, Time 11.0045
  Cell water (relative change): 0.5229 relative change
[2]; Fig 5b trace, Time 12.0045
  Cell water (relative change): 0.4882 relative change
[2]; Fig 5b trace, Time 13.0045
  Cell water (relative change): 0.4496 relative change
[2]; Fig 5b trace, Time 14.0045
  Cell water (relative change): 0.4313 relative change
[2]; Fig 5b trace, Time 15.0047
  Cell water (relative change): 0.4596 relative change
[2]; Fig 5b trace, Time 16.0047
  Cell water (relative change): 0.433 relative change
[2]; Fig 5b trace, Time 17.0047
  Cell water (relative change): 0.4137 relative change
[2]; Fig 5b trace, Time 18.0047
  Cell water (relative change): 0.4143 relative change
[2]; Fig 5b trace, Time 19.0049
  Cell water (relative change): 0.386 relative change
[2]; Fig 5b trace, Time 20.0049
  Cell water (relative change): 0.3846 relative change
[2]; Fig 5b trace, Time 21.0048
  Cell water (relative change): 0.3598 relative change
[2]; Fig 5b trace, Time 22.0048
  Cell water (relative change): 0.3067 relative change
[2]; Fig 5b trace, Time 23.005
  Cell water (relative change): 0.3082 relative change
[2]; Fig 5b trace, Time 24.0048
  Cell water (relative change): 0.3082 relative change
[2]; Fig 5b trace, Time 25.005
  Cell water (relative change): 0.2995 relative change
[2]; Fig 5b trace, Time 26.0053
  Cell water (relative change): 0.543 relative change
[2]; Fig 5b trace, Time 27.005
  Cell water (relative change): 0.6295 relative change
[2]; Fig 5b trace, Time 28.005
  Cell water (relative change): 0.7317 relative change
[2]; Fig 5b trace, Time 29.0051
  Cell water (relative change): 0.8403 relative change
[2]; Fig 5b trace, Time 30.005
  Cell water (relative change): 0.9491 relative change
[2]; Fig 5b trace, Time 31.005
  Cell water (relative change): 1.001 relative change
[2]; Fig 5b trace, Time 32.005
  Cell water (relative change): 1.095 relative change
[2]; Fig 5b trace, Time 33.0052
  Cell water (relative change): 1.18 relative change
[2]; Fig 5b trace, Time 34.0052
  Cell water (relative change): 1.2174 relative change
[2]; Fig 5b trace, Time 35.0052
  Cell water (relative change): 1.246 relative change
[2]; Time 1.0036
  Cell water (relative change): 0.9411
[2]; Time 2.0038
  Cell water (relative change): 0.9678
[2]; Time 3.0038
  Cell water (relative change): 0.9873
[2]; Time 4.0037
  Cell water (relative change): 1.0365
[2]; Time 5.0037
  Cell water (relative change): 1.0673
[2]; Time 6.0037
  Cell water (relative change): 0.3755
[2]; Time 7.0039
  Cell water (relative change): 0.3590
[2]; Time 8.0040
  Cell water (relative change): 0.3612
[2]; Time 9.0042
  Cell water (relative change): 0.3419
[2]; Time 10.0039
  Cell water (relative change): 0.3164
[2]; Time 11.0039
  Cell water (relative change): 0.3660
[2]; Time 12.0039
  Cell water (relative change): 0.3218
[2]; Time 13.0041
  Cell water (relative change): 0.3220
[2]; Time 14.0041
  Cell water (relative change): 0.3646
[2]; Time 15.0040
  Cell water (relative change): 0.4243
[2]; Time 16.0040
  Cell water (relative change): 0.3424
[2]; Time 17.0040
  Cell water (relative change): 0.4003
[2]; Time 18.0045
  Cell water (relative change): 0.3516
[2]; Time 19.0042
  Cell water (relative change): 0.3431
[2]; Time 20.0042
  Cell water (relative change): 0.3283
[2]; Time 21.0042
  Cell water (relative change): 0.3207
[2]; Time 22.0041
  Cell water (relative change): 0.3314
[2]; Time 23.0044
  Cell water (relative change): 0.2994
[2]; Time 24.0044
  Cell water (relative change): 0.3371
[2]; Time 25.0043
  Cell water (relative change): 0.3486
[2]; Time 26.0043
  Cell water (relative change): 0.4588
[2]; Time 27.0043
  Cell water (relative change): 0.5973
[2]; Time 28.0045
  Cell water (relative change): 0.7262
[2]; Time 29.0044
  Cell water (relative change): 0.8045
[2]; Time 30.0044
  Cell water (relative change): 0.9325
[2]; Time 31.0046
  Cell water (relative change): 1.0105
[2]; Time 32.0046
  Cell water (relative change): 1.1112
[2]; Time 33.0046
  Cell water (relative change): 1.1274
[2]; Time 34.0045
  Cell water (relative change): 1.2089
[2]; Time 35.0045
  Cell water (relative change): 1.2137
[2]; hyperosmotic stress 370 mOsm, ZT-1a 3 μM, BMT 10 μM
  regulatory volume increase (RVI) response of primary cortical neurons: no RVI response
[2]; hypertonic 370 mOsm/kg H2O, earlier manuscript version quoted in peer-review file
  cell shrinkage of primary cortical neurons: 87%
[2]; hypertonic stress, earlier manuscript version quoted in peer-review file
  initial rate of cell shrinkage: 29 ± 9 % vol/min
[2]; hypertonicity-mediated osmotic shrinkage, three cultures
  neurons exhibiting RVI / cells analysed: 0/49

From paper PMC6946680, “Modulation of brain cation-Cl^− cotransport via the SPAK kinase inhibitor ZT-1a” (Nature Communications, 2020)
